Experimental data published in patent US9061054B2, “ErbB-2 receptor targeting peptide” (The Curators of The University of Missouri, priority 2002, dated 2015).
Numbered stars: 1 amine (or outer) side, 2 acyl side, 3 side chain; on linkers, the order of the positions; unused ones are H or OH. Bridge positions count the residues as written; N and C are the ends. Square brackets hold non-standard residues; d marks the D form. Ends that are not written are not given here. Peptide text beside a SMILES is read from it. I, II: the chains in the order shown. Actinocin(9to1) = Cc1c2oc3c(C)ccc(C(=O)[*:1])c3nc-2c(C(=O)[*:2])c(N)c1=O; NMeV = CN[C@H](C(=O)O)C(C)C; Sar = CNCC(=O)O

How the values were obtained:
[1] = biological target: T1, ErbB-2-ECD (Homo sapiens, UniProt P04626); assay: Affinity selection of phage display library; format: binding; parameters: Purification and characterization of the recombinant extracellular domain of ErbB-2; made in house; conditions: 100 clones sequenced after four rounds of affinity selection; F3-6 library
Description: Affinity Selection. […] Biotinylated antigen was incubated with streptavidin coated plates for 2 hours at 4° C. In first and second round of selection 10 μg of biotinylated antigen per plate was added, in third round amount of antigen was decreased to 1 μg, and for fourth round of selection 0.1 μg of antigen was used. Unoccupied biotin-binding sites were blocked with 0.1 mM biotin. Phage was incubated with antigen for 4 hrs at RT. Plates were washed 10 times with TPBS to remove unbound phage. Bound phage was eluted with elution buffer (0.1 M HCl, pH is adjusted to 2.2 with glycine, 1 mg/ml BSA, 0.1 mg/ml phenol red) at RT during 10 min. […] After each round, except the last, the eluate of the bound phage was propagated and used as input for the next round. Individual clones were characterized by DNA sequencing after the fourth round of selection.
A random 6-amino acid peptide bacteriophage display library was affinity selected against the ErbB-2-ECD to identify novel peptide-ligands.

[2] = system: MDA-MB-435 human breast carcinoma cells; assay: Direct cell binding assay, MDA-MB-435; format: cell-based; conditions: fixed, non-permeabilized cells; biotinylated peptide 100 μM; antibody 1:100
Description: (§1) Cell Binding Assay. […] When cultures reached approximately 60-70% confluence, the cells were briefly washed with PBS, fixed with 4% formaldehyde solution in PBS for 30 min but not permeabilized, and preblocked for 1 hr with 2% bovine serum albumin (BSA) solution in PBS at 37° C. The cultivation chambers were removed and cells were incubated for 2 hr with solution of Neu (9G6) anti-ErbB-2 mouse monoclonal antibody (Santa Cruz Biotechnology) diluted 1:100 and biotinylated peptide (100 μM) in 2% solution BSA in PBS. The slides were washed three times with PBS followed by 1 hr incubation with Lissamine Rhodamineconjugated donkey anti-mouse IgG (Jackson ImmunoResearch Laboratories) and streptavidin-AMCA-S conjugate (Molecular Probes) in 2% BSA in PBS. After additional washes with PBS, the slides were mounted and analyzed by fluorescent microscopy using Rhodamine and UVA filter sets.
(§2) Direct Cell Binding Assay. The ability of the p6.1 to recognize cultured human cancer cells expressing native conformation of the ErbB-2 was examined.

[3] = system: DU-145 human prostate carcinoma cells; assay: Direct cell binding assay, DU-145; format: cell-based; conditions: fixed, non-permeabilized cells; biotinylated peptide 100 μM; antibody 1:100
Description: as §1, §2

[4] = system: T-24 human bladder carcinoma cells; assay: Direct cell binding assay, T-24 (negative control); format: cell-based; conditions: biotinylated peptide 100 μM, antibody 1:100
Description: Cell Binding Assay. DU-145 (human prostate adenocarcinoma), MDA-MB-435 (human breast carcinoma), and T-24 (human bladder carcinoma) cells were grown directly on the same microscope slide using a 4 well Lab-Tek II chamber slide system (Nalge Nunc). When cultures reached approximately 60-70% confluence, the cells were briefly washed with PBS, fixed with 4% formaldehyde solution in PBS for 30 min but not permeabilized, and preblocked for 1 hr with 2% bovine serum albumin (BSA) solution in PBS at 37° C. The cultivation chambers were removed and cells were incubated for 2 hr with solution of Neu (9G6) anti-ErbB-2 mouse monoclonal antibody (Santa Cruz Biotechnology) diluted 1:100 and biotinylated peptide (100 μM) in 2% solution BSA in PBS. The slides were washed three times with PBS followed by 1 hr incubation with Lissamine Rhodamineconjugated donkey anti-mouse IgG (Jackson ImmunoResearch Laboratories) and streptavidin-AMCA-S conjugate (Molecular Probes) in 2% BSA in PBS. After additional washes with PBS, the slides were mounted and analyzed by fluorescent microscopy using Rhodamine and UVA filter sets.
Direct Cell Binding Assay. The ability of the p6.1 to recognize cultured human cancer cells expressing native conformation of the ErbB-2 was examined. High levels of ErbB-2 expression on DU-145 human prostate carcinoma cells has been reported previously (Zhau et al., 1992). […]

[5] = system: multiple myeloma; conditions: oral administration; cited from earlier work
[6] = cited from earlier work
[7] = in vivo; cited from earlier work
[8] = cited from earlier work; for plasma protein binding: in vivo
[9] = oral radioactive lomustine, about 30 mg/m^2 to 100 mg/m^2; cited from earlier work
[10] = biological target: T2, ErbB-1 receptor from human carcinoma A431 cells (Homo sapiens, UniProt P00533); assay: ELISA, immobilized ErbB-1; format: binding; conditions: 100 ng protein per well; biotinylated peptide in 1:2 serial dilutions; OD 405 nm
T2 construct: ErbB-1 receptor from human carcinoma A431 cells; purchased Sigma #E-2645; host or cells: A431 human carcinoma cells (endogenous receptor, isolated by the vendor)

[11] = biological target: T1, ErbB-2-ECD; conditions: 6.25-50 ng protein on nitrocellulose; biotinylated peptide, 2 hrs RT
Description: Immunoblot analysis of binding activity of the p6.1 peptide. […] After washing three times with PBS, the membrane was incubated with 100 μg biotinylated peptide for 2 hrs at RT.
Binding activity of p6.1 peptide. The binding specificity of synthetic p6.1 peptide to recombinant ErbB-2-ECD was examined by immunoblot and ELISA procedures. Immunoblot analysis was performed to compare the binding activity of the p6.1 peptide to ErbB-2-ECD and several other non-ErbB-2 related proteins. Purified recombinant ErbB-2-ECD as well as BSA, bovine asialofetuin, and human IgG were spotted on a nitrocellulose membrane at various amounts and exposed to the biotinylated p6.1 peptide.

[12] = biological target: T1, ErbB-2-ECD; assay: ELISA, immobilized ErbB-2-ECD
Description: ELISA. […] Wells were subsequently incubated with biotinylated peptide added to the wells by serial dilutions (1:2) at RT for 2 hr. […] The pNPP reaction was stopped with 3M NaOH. Optical density was measured at 405 nm in a microplate reader. All assays were performed at least three times in triplicate wells. Values are reported as an average of absorbence ±SD.

[13] = biological target: T3, soluble ErbB-2-ECD (Homo sapiens, UniProt P04626); assay: Fluorescence quenching titration of ErbB-2-ECD; format: binding; conditions: saturation conditions; excited at 300 nm, monitored at 350 nm
T3 construct: Purification and characterization of the recombinant extracellular domain of ErbB-2; made in house
Description: Fluorescence assay. The fluorescence titration studies were carved out using a SLM Aminco spectrofluorometer interfaced to a DEL 433/L PC running SLM Aminco 8100 series 2 software. The titrations were performed at 25° C. with varying amounts of peptide added to a fixed ErbB-2-ECD concentration (200-600 nM) in 2 ml of phosphate buffered saline (pH=7.4). Each measurement was collected for 5-20 sec after 1-2 min pre-equilibration. The excitation shutter remained closed during pre-equilibration of the sample and was opened only during data acquisition in order to minimize photobleaching of the sample. The fluorescence measurements were corrected for dilutions and photobleaching of ErbB-2-ECD. Values reported are an average of three independent measurements. […]
Fluorescence quenching studies were performed in order to evaluate the equilibrium dissociation constant of p6.1 to the soluble Erb-2-ECD. Intrinsic tryptophan fluorescence of the protein was monitored as a function of peptide concentration. Since p6.1 peptide contains a tyrosine residue, samples were excited at 300 nm and monitored at 350 nm to minimize the influence of tyrosine emission on tryptophan fluorescence. […] Theoretical curves were generated for the percentage of fluorescence quenching as a function of total peptide concentration (FIG. 2C).

[14] = system: BSA, bovine asialofetuin, and human IgG; assay: Immunoblot analysis, control proteins; format: binding; conditions: 6.25-50 ng on nitrocellulose, biotinylated peptide
Text: Binding activity of p6.1 peptide.

WYAWML [p6.2]
% Of Clones [1]: 8%

WYSWLL [p6.3]
% Of Clones [1]: 10%

biotinylated p6.1: biotinylated analog of the p6.1 peptide KCCYSL, chemically synthesized (cysteine pairing not given here; also: biotinylated, place not given here)
binding to MDA-MB-435 cells (fluorescent microscopy) [2]: bound
binding to DU-145 cells (fluorescent microscopy) [3]: bound
binding to T-24 cells (fluorescent microscopy) [4]: Neither the Neu (9G6) anti-ErbB-2 antibody, nor the biotinylated p6.1 bound

N[C@@H](Cc1ccc(N(CCCl)CCCl)cc1)C(=O)O [Melphalan]
patients with multiple myeloma showing a favorable response [5]: one third to one half

O=NN(CCCl)C(=O)NCCCl [Carmustine, 1,3 bis(2-chloroethyl)-1-nitrosourea]
solubility in water [6]: poorly soluble

Cc1c2oc3c(C)ccc(C(=O)N[C@@H]4C(=O)N[C@H](C(C)C)C(=O)N5CCC[C@H]5C(=O)N(C)CC(=O)N(C)[C@@H](C(C)C)C(=O)O[C@@H]4C)c3nc-2c(C(=O)N[C@@H]2C(=O)N[C@H](C(C)C)C(=O)N3CCC[C@H]3C(=O)N(C)CC(=O)N(C)[C@@H](C(C)C)C(=O)O[C@@H]2C)c(N)c1=O [Actinomycin D] (I: T[dV]P[Sar][NMeV] / II: T[dV]P[Sar][NMeV]; ester I:1-I:C, II:1-II:C; linker I:N-II:N via Actinocin(9to1))
passage of the blood-brain barrier [7]: does not pass

CC[C@]1(O)C[C@H]2CN(CCc3c([nH]c4ccccc34)[C@@](C(=O)OC)(c3cc4c(cc3OC)N(C=O)[C@H]3[C@@](O)(C(=O)OC)[C@H](OC(C)=O)[C@]5(CC)C=CCN6CC[C@]43[C@@H]65)C2)C1 [vincristine]
plasma protein binding [8]: bind to plasma proteins
absorption after oral administration [8]: Unpredictable absorption

O=NN(CCCl)C(=O)NC1CCCCC1 [Lomustine, 1-(2-chloro-ethyl)-3-cyclohexyl-1 nitrosourea]
radioactivity excreted as degradation products within 24 hours [9]: about half

KCCYSL [p6.1, chemically synthesized]
binding activity to ErbB-1 protein (ELISA) [10]: significant dose dependent binding activity
binding to immobilized ErbB-2-ECD (immunoblot) [11]: bound only ErbB-2
binding activity to ErbB-2-ECD (ELISA) ([12]; 100 ng protein per well, biotinylated peptide in 1:2 serial dilutions, OD 405 nm): significant dose dependent binding activity
competition with Neu (9G6) antibody for the same binding site on the extracellular domain ([12]; experimental ELISA data): do not compete
maximum quenching of tryptophanyl fluorescence [13]: 20%
reaction with control proteins (immunoblot) [14]: did not react
% Of Clones [1]: 75%

CC[C@]1(O)C[C@@H]2CN(CCc3c([nH]c4ccccc34)[C@@](C(=O)OC)(c3cc4c(cc3OC)N(C)[C@H]3[C@@](O)(C(=O)OC)[C@H](OC(C)=O)[C@]5(CC)C=CCN6CC[C@]43[C@@H]65)C2)C1 [vinblastine]
plasma protein binding [8]: bind to plasma proteins
absorption after oral administration [8]: Unpredictable absorption
